Drawing on ChEMBL document CHEMBL3046293, “Fungicidal Activities of -Methoxyphenylacetic Acid Derivatives” (2002), this text covers Activity for seven compounds.

Format in all cases: functional
The test system of experiment [1] is Pyricularia oryzae. In words: Fungicidal activity against Magnaporthe oryzae Cav. race 003 assessed as rice blast disease control at 31.3 ppm treated 24 hr before inoculation by preventive manner.
Experiment [2] concerns Podosphaera fuliginea. In words: Fungicidal activity against Podosphaera fuliginea assessed as cucumber powdery mildew disease control at 7.8 ppm treated 24 hr before inoculation by preventive manner.
Experiment [3] has as its system Botrytis cinerea. In words: Fungicidal activity against Botryotinia fuckeliana assessed as cucumber gray mold disease control at 7.8 ppm treated 24 hr before inoculation by preventive manner.
Experiment [4] deals with Podosphaera fuliginea. Briefly: Fungicidal activity against Podosphaera fuliginea assessed as cucumber powdery mildew control at 0.125 ppm foliar application 24 hr after inoculation by curative manner.
Experiment [5] relates to Podosphaera fuliginea. In words: Fungicidal activity against Podosphaera fuliginea assessed as cucumber powdery mildew control at 0.5 ppm foliar application 24 hr after inoculation by curative manner.
In experiment [6] the test system is Podosphaera fuliginea. In words: Fungicidal activity against Podosphaera fuliginea assessed as cucumber powdery mildew control at 2 ppm foliar application 24 hr after inoculation by curative manner.
Experiment [7] has as its system Podosphaera fuliginea. Briefly: Fungicidal activity against Podosphaera fuliginea assessed as cucumber powdery mildew control at 7.8 ppm foliar application 24 hr after inoculation by curative manner.
For experiment [8], the system named is Podosphaera fuliginea. Briefly: Fungicidal activity against Podosphaera fuliginea assessed as cucumber powdery mildew control at 0.125 ppm foliar application 24 hr before inoculation by preventive manner.
The subject of experiment [9] is Podosphaera fuliginea. Briefly: Fungicidal activity against Podosphaera fuliginea assessed as cucumber powdery mildew control at 0.5 ppm foliar application 24 hr before inoculation by preventive manner.
Experiment [10] deals with Podosphaera fuliginea. In words: Fungicidal activity against Podosphaera fuliginea assessed as cucumber powdery mildew control at 2 ppm foliar application 24 hr before inoculation by preventive manner.
Experiment [11] deals with Podosphaera fuliginea. Briefly: Fungicidal activity against Podosphaera fuliginea assessed as cucumber powdery mildew control at 7.8 ppm foliar application 24 hr before inoculation by preventive manner.
The test system of experiment [12] is Pyricularia oryzae. Briefly: Fungicidal activity against Magnaporthe oryzae Cav. race 003 assessed as rice blast disease control at 2 ppm foliar application for 24 hr before inoculation by preventive manner.
Experiment [13] has as its system Pyricularia oryzae. Briefly: Fungicidal activity against Magnaporthe oryzae Cav. race 003 assessed as rice blast disease control at 7.8 ppm foliar application for 24 hr before inoculation by preventive manner.
The test system of experiment [14] is Pyricularia oryzae. In words: Fungicidal activity against Magnaporthe oryzae Cav. race 003 assessed as rice blast disease control at 31.3 ppm foliar application for 24 hr before inoculation by preventive manner.
Experiment [15] relates to Pyricularia oryzae. In words: Fungicidal activity against Magnaporthe oryzae Cav. race 003 assessed as rice blast disease control at 125 ppm foliar application for 24 hr before inoculation by preventive manner.
The subject of experiment [16] is Thanatephorus cucumeris. In words: Fungicidal activity against Thanatephorus cucumeris assessed as rice sheath blight disease control at 2 ppm foliar application for 24 hr after inoculation by curative manner.
Experiment [17] concerns Thanatephorus cucumeris. In words: Fungicidal activity against Thanatephorus cucumeris assessed as rice sheath blight disease control at 7.8 ppm foliar application for 24 hr after inoculation by curative manner.
Experiment [18] relates to Thanatephorus cucumeris. Briefly: Fungicidal activity against Thanatephorus cucumeris assessed as rice sheath blight disease control at 31.3 ppm foliar application for 24 hr after inoculation by curative manner.
For experiment [19], the system named is Thanatephorus cucumeris. In words: Fungicidal activity against Thanatephorus cucumeris assessed as rice sheath blight disease control at 125 ppm foliar application for 24 hr after inoculation by curative manner.
For experiment [20], the system named is Thanatephorus cucumeris. In words: Fungicidal activity against Thanatephorus cucumeris assessed as rice sheath blight disease control at 2 ppm foliar application for 24 hr before inoculation by preventive manner.
Experiment [21] deals with Thanatephorus cucumeris. In words: Fungicidal activity against Thanatephorus cucumeris assessed as rice sheath blight disease control at 7.8 ppm foliar application for 24 hr before inoculation by preventive manner.
Experiment [22] relates to Thanatephorus cucumeris. In words: Fungicidal activity against Thanatephorus cucumeris assessed as rice sheath blight disease control at 31.3 ppm foliar application for 24 hr before inoculation by preventive manner.
Experiment [23] relates to Thanatephorus cucumeris. Briefly: Fungicidal activity against Thanatephorus cucumeris assessed as rice sheath blight disease control at 125 ppm foliar application for 24 hr before inoculation by preventive manner.
For experiment [24], the system named is Botrytis cinerea. In words: Fungicidal activity against Botryotinia fuckeliana assessed as cucumber gray mold disease control at 2 ppm foliar application 24 hr after inoculation by curative manner.
The subject of experiment [25] is Botrytis cinerea. Briefly: Fungicidal activity against Botryotinia fuckeliana assessed as cucumber gray mold disease control at 7.8 ppm foliar application 24 hr after inoculation by curative manner.
Experiment [26] concerns Botrytis cinerea. Briefly: Fungicidal activity against Botryotinia fuckeliana assessed as cucumber gray mold disease control at 31.3 ppm foliar application 24 hr after inoculation by curative manner.
Experiment [27] concerns Botrytis cinerea. Briefly: Fungicidal activity against Botryotinia fuckeliana assessed as cucumber gray mold disease control at 125 ppm foliar application 24 hr after inoculation by curative manner.
Experiment [28] deals with Botrytis cinerea. In words: Fungicidal activity against Botryotinia fuckeliana assessed as cucumber gray mold disease control at 2 ppm foliar application 24 hr before inoculation by preventive manner.
The test system of experiment [29] is Botrytis cinerea. Briefly: Fungicidal activity against Botryotinia fuckeliana assessed as cucumber gray mold disease control at 7.8 ppm foliar application 24 hr before inoculation by preventive manner.
Experiment [30] concerns Botrytis cinerea. In words: Fungicidal activity against Botryotinia fuckeliana assessed as cucumber gray mold disease control at 31.3 ppm foliar application 24 hr before inoculation by preventive manner.
In experiment [31] the test system is Botrytis cinerea. In words: Fungicidal activity against Botryotinia fuckeliana assessed as cucumber gray mold disease control at 125 ppm foliar application 24 hr before inoculation by preventive manner.
The subject of experiment [32] is Pseudoperonospora cubensis. Briefly: Fungicidal activity against Pseudoperonospora cubensis assessed as cucumber downy mildew disease control at 125 ppm foliar application 24 hr after inoculation by curative manner.
For experiment [33], the system named is Pseudoperonospora cubensis. In words: Fungicidal activity against Pseudoperonospora cubensis assessed as cucumber downy mildew disease control at 2 ppm foliar application 24 hr before inoculation onto the abaxial(treated) surface of leaf by preventive manner.
Experiment [34] concerns Pseudoperonospora cubensis. Briefly: Fungicidal activity against Pseudoperonospora cubensis assessed as cucumber downy mildew disease control at 7.8 ppm foliar application 24 hr before inoculation onto the abaxial(treated) surface of leaf by preventive manner.
In experiment [35] the test system is Pseudoperonospora cubensis. Briefly: Fungicidal activity against Pseudoperonospora cubensis assessed as cucumber downy mildew disease control at 31.3 ppm foliar application 24 hr before inoculation onto the abaxial(treated) surface of leaf by preventive manner.
In experiment [36] the test system is Pseudoperonospora cubensis. Briefly: Fungicidal activity against Pseudoperonospora cubensis assessed as cucumber downy mildew disease control at 125 ppm foliar application 24 hr before inoculation onto the abaxial(treated) surface of leaf by preventive manner.
In experiment [37] the test system is Pseudoperonospora cubensis. In words: Fungicidal activity against Pseudoperonospora cubensis assessed as cucumber downy mildew disease control at 2 ppm foliar application 24 hr before inoculation onto the adaxial(treated) surface of leaf by preventive manner.
The test system of experiment [38] is Pseudoperonospora cubensis. In words: Fungicidal activity against Pseudoperonospora cubensis assessed as cucumber downy mildew disease control at 7.8 ppm foliar application 24 hr before inoculation onto the adaxial(treated) surface of leaf by preventive manner.
Experiment [39] concerns Pseudoperonospora cubensis. Briefly: Fungicidal activity against Pseudoperonospora cubensis assessed as cucumber downy mildew disease control at 31.3 ppm foliar application 24 hr before inoculation onto the adaxial(treated) surface of leaf by preventive manner.
Experiment [40] deals with Pseudoperonospora cubensis. In words: Fungicidal activity against Pseudoperonospora cubensis assessed as cucumber downy mildew disease control at 125 ppm foliar application 24 hr before inoculation onto the adaxial(treated) surface of leaf by preventive manner.
For experiment [41], the system named is Pseudoperonospora cubensis. In words: Fungicidal activity against Pseudoperonospora cubensis assessed as cucumber downy mildew disease control at 2 ppm foliar application 24 hr after inoculation by curative manner.
Experiment [42] has as its system Pseudoperonospora cubensis. Briefly: Fungicidal activity against Pseudoperonospora cubensis assessed as cucumber downy mildew disease control at 7.8 ppm foliar application 24 hr after inoculation by curative manner.
Experiment [43] deals with Pseudoperonospora cubensis. In words: Fungicidal activity against Pseudoperonospora cubensis assessed as cucumber downy mildew disease control at 31.3 ppm foliar application 24 hr after inoculation by curative manner.
For experiment [44], the system named is Blumeria graminis. In words: Fungicidal activity against Blumeria graminis f. sp. tritici assessed as wheat powdery mildew disease control at 2 ppm foliar application for 24 hr after inoculation by curative manner.
The test system of experiment [45] is Blumeria graminis. In words: Fungicidal activity against Blumeria graminis f. sp. tritici assessed as wheat powdery mildew disease control at 7.8 ppm foliar application for 24 hr after inoculation by curative manner.
Experiment [46] deals with Blumeria graminis. In words: Fungicidal activity against Blumeria graminis f. sp. tritici assessed as wheat powdery mildew disease control at 31.3 ppm foliar application for 24 hr after inoculation by curative manner.
Experiment [47] deals with Blumeria graminis. In words: Fungicidal activity against Blumeria graminis f. sp. tritici assessed as wheat powdery mildew disease control at 125 ppm foliar application for 24 hr after inoculation by curative manner.
For experiment [48], the system named is Blumeria graminis. Briefly: Fungicidal activity against Blumeria graminis f. sp. tritici assessed as wheat powdery mildew disease control at 2 ppm foliar application for 24 hr before inoculation by preventive manner.
The test system of experiment [49] is Blumeria graminis. Briefly: Fungicidal activity against Blumeria graminis f. sp. tritici assessed as wheat powdery mildew disease control at 7.8 ppm foliar application for 24 hr before inoculation by preventive manner.
The subject of experiment [50] is Blumeria graminis. In words: Fungicidal activity against Blumeria graminis f. sp. tritici assessed as wheat powdery mildew disease control at 31.3 ppm foliar application for 24 hr before inoculation by preventive manner.
Experiment [51] has as its system Blumeria graminis. In words: Fungicidal activity against Blumeria graminis f. sp. tritici assessed as wheat powdery mildew disease control at 125 ppm foliar application for 24 hr before inoculation by preventive manner.

`CNC(=O)C(OC)c1cccc(COc2ccc(C)cc2C)c1` (configuration not stated): the Activity in experiment [1] is 90%; in [2] it was 90%; in experiment [3], 50%.

For the compound `CNC(=O)C(OC)c1cccc(COc2cc(C)cc(C)c2C)c1` (configuration not stated), the Activity stood at 90% in experiment [1], 90% in [2] and 50% in experiment [3].

As for `OC(c1ccc(Cl)cc1)(c1cncnc1)c1ccccc1Cl` (configuration not stated) [FENARIMOL], the Activity is reported as 80% in experiment [4]; 99% in [5]; 99% in experiment [6]; 100% in experiment [7]; 0% in [8]; 80% in experiment [9]. For the same compound, the Activity was determined as 95% in experiment [10] and 100% in experiment [11].

Take `C/C(=N/Nc1nc(C)cc(C)n1)c1ccccc1C` [FERIMZONE]: the Activity in experiment [12] is reported as 30%; in experiment [13] it was 50%; in [14], 90%; in experiment [15], 97%.

Regarding `CC(C)Oc1cccc(NC(=O)c2ccccc2C(F)(F)F)c1` [FLUTOLANIL], the Activity is listed as 40% in experiment [16]; 70% in experiment [17]; 80% in [18]; 80% in [19]; 20% in experiment [20]; 70% in experiment [21]. In addition, the Activity in experiment [22] was 80%; in experiment [23] it was 90%.

Regarding `CC(C)NC(=O)N1CC(=O)N(c2cc(Cl)cc(Cl)c2)C1=O` [IPRODIONE], the Activity in experiment [24] turned out to be 20%; in experiment [25] it was 60%; in [26], 70%; in experiment [27], 80%; in [28], 20%; in [29], 50%. The Activity in experiment [30] and in experiment [31] was 100% throughout.

In the case of `CO/N=C(/C(=O)OC)c1ccccc1COc1ccccc1C` [KRESOXIM-METHYL], the Activity was found to be 30% in experiment [32]; 0% in experiment [33]; 0% in experiment [34]; 0% in experiment [35]; 30% in experiment [36]; 97% in experiment [37]. Besides, the Activity in [38] came out at 97%; in [39], 97%; in experiment [40], 97%; in experiment [24], 0%; in experiment [25] it was 0%; in experiment [26] it was 10%. Also, the Activity in experiment [27] came out at 30%; in experiment [28], 20%; in experiment [29], 50%; in [41], 0%; in [42], 0%; in experiment [43] it was 0%. The Activity in experiment [30] is given as 50%; in experiment [31], 50%; in [4] it was 50%; in experiment [5], 80%; in experiment [6], 90%; in experiment [44] it was 50%. For the same compound, the Activity is 70% in experiment [45]; 100% in [7]; 0% in [8]; 20% in [9]; 80% in experiment [10]; 97% in [11]. The Activity in experiment [46] is 90%; in experiment [47], 90%; in experiment [48], 30%; in experiment [49] it was 50%; in experiment [50], 70%; in experiment [51] it was 90%. Moreover, the Activity was determined as 0% in experiment [16]; 0% in experiment [17]; 30% in [18]; 50% in experiment [19]; 30% in [20]; 30% in experiment [21]. In addition, the Activity in experiment [22] was 30%; in experiment [23], 50%; in experiment [12] it was 30%; in [13], 50%; in experiment [14] it was 70%; in experiment [15], 97%.
